From patent US20040198639A1, “Preserved and stable compositions containing peptide copper complexes and methods related thereto” (ProCyte Corporation, priority 2003, published 2004)

Test: Storage stability of Example 1 solution: amounts of peptide copper complex and preservatives over time
Type: physicochemical
Description: The preservatives used are non-formaldehyde-donating preservatives. The solution was placed in a series of small sealed glass vials and stored at room temperature, at 40° C. and at 50° C. At various measured times, the amount of the peptide copper complex and of the preservatives was determined.

Compound	Amounts when Stored at 40° C. (0 weeks)	Amounts when Stored at 40° C. (1 week)	Amounts when Stored at 40° C. (2 weeks)	Amounts when Stored at 40° C. (3 weeks)	Amounts when Stored at 40° C. (4 weeks)	Amounts when Stored at 50° C. (0 weeks)	Amounts when Stored at 50° C. (1 week)	Amounts when Stored at 50° C. (2 weeks)	Amounts when Stored at 50° C. (3 weeks)	Amounts when Stored at 50° C. (4 weeks)	Amounts when Stored at Room Temperature (0 weeks)	Amounts when Stored at Room Temperature (1 week)	Amounts when Stored at Room Temperature (2 weeks)	Amounts when Stored at Room Temperature (3 weeks)	Amounts when Stored at Room Temperature (4 weeks)	Amounts when Stored at Room Temperature (28 weeks)
COC(=O)c1ccc(O)cc1 [Methylparaben, methylparaben]	1.83 mg/mL	1.79 mg/mL	1.80 mg/mL	1.77 mg/mL	1.75 mg/mL	1.83 mg/mL	1.77 mg/mL	1.70 mg/mL	1.65 mg/mL	1.63 mg/mL	1.83 mg/mL	1.81 mg/mL	1.84 mg/mL	1.82 mg/mL	1.81 mg/mL	1.80 mg/mL
CCCOC(=O)c1ccc(O)cc1 [Propylparaben, propylparaben]	0.18 mg/mL	0.18 mg/mL	0.18 mg/mL	0.18 mg/mL	0.18 mg/mL	0.18 mg/mL	0.18 mg/mL	0.17 mg/mL	0.17 mg/mL	0.17 mg/mL	0.18 mg/mL	0.18 mg/mL	0.18 mg/mL	0.18 mg/mL	0.18 mg/mL	0.18 mg/mL
glycyl-L-histidyl-L-lysine:copper(II)	1.06 mg/mL	1.04 mg/mL	1.07 mg/mL	1.06 mg/mL	1.06 mg/mL	1.06 mg/mL	1.05 mg/mL	1.04 mg/mL	1.04 mg/mL	1.04 mg/mL	1.06 mg/mL	1.05 mg/mL	1.06 mg/mL	1.07 mg/mL	1.07 mg/mL	1.05 mg/mL
